# From DBAASP
# Columns and labels:
# Assay in all cases: ≥ marks a high value that may be exact or a test limit, other limits are often not marked, values filed in µg/mL are converted to µM
# [1] = test system: Fusarium oxysporum f. sp. lycopersici ATCC 201829
# [2] = test system: Rhizopus stolonifer CECT 2344
# [3] = test system: Penicillium expansum EPS 26
# [4] = test system: Aspergillus niger CECT 2694
# [5] = test system: Escherichia coli DH5alpha
# [6] = test system: Bacillus subtilis DSM 347
# [7] = test system: Staphylococcus aureus ATCC 700699
# [8] = test system: Pseudomonas aeruginosa ATCC 27853
# [9] = test system: Staphylococcus aureus ATCC 33591
# [10] = test system: Staphylococcus aureus ATCC 29213
# [11] = test system: Klebsiella pneumoniae ATCC 700603
# [12] = test system: Escherichia coli ATCC 25922
# Pseudomonas aeruginosa = test system: Pseudomonas aeruginosa
# Staphylococcus aureus = test system: Staphylococcus aureus
# Proteus mirabilis = test system: Proteus mirabilis
# Streptococcus pyogenes = test system: Streptococcus pyogenes
# [13] = test system: Staphylococcus epidermidis
# [14] = test system: Salmonella enterica serovar Typhimurium
# Escherichia coli UB1005 = test system: Escherichia coli UB1005
# [15] = test system: Staphylococcus aureus ATCC 25923
# Candida albicans = test system: Candida albicans
# [16] = test system: Pseudomonas aeruginosa H103
# [17] = test system: Bacillus subtilis KCTC 3068
# [18] = test system: Pseudomonas aeruginosa KCTC 2513
# [19] = test system: Escherichia coli KCTC 2571
# [20] = test system: Staphylococcus epidermidis KCTC 1917
# [21] = test system: Escherichia coli KCTC 2593
# [22] = test system: Salmonella typhimurium KCTC 1926
# [23] = test system: Bacillus subtilis KCTC 1022
# [24] = test system: Pseudomonas aeruginosa KCTC 2004
# [25] = test system: Staphylococcus aureus KCTC 1916
# [26] = test system: Escherichia coli KCTC 1682
# [27] = test system: Bacillus subtilis KCTC 1021
# [28] = test system: Staphylococcus aureus KCTC 3881
# [29] = test system: Staphylococcus aureus KCTC 1621
# [30] = test system: Pseudomonas aeruginosa KCTC 1637
compound,measurement,setting,value
CC[C@H](C)[C@H](NC(=O)[C@H](CCCCN)NC(=O)[C@H](CCCCN)NC(=O)[C@H](Cc1ccccc1)NC(=O)[C@H](CC(C)C)NC(=O)[C@H](CCCCN)NC(=O)[C@@H](N)Cc1ccccc1)C(=O)N[C@@H](CC(C)C)C(=O)N[C@@H](CCCCN)C(=O)N[C@H](C(=O)N[C@@H](CC(C)C)C(N)=O)C(C)C [FKLFKKILKVL],MIC,[1],1.73 µM
same,MIC,[2],≥ 70.7 µM
same,MIC,[3],≥ 35.4 µM
same,MIC,[4],22.4 µM
CC[C@H](C)[C@H](NC(=O)CN)C(=O)NCC(=O)N[C@@H](CCCCN)C(=O)N[C@@H](Cc1ccccc1)C(=O)N[C@H](C(=O)N[C@@H](Cc1cnc[nH]1)C(=O)N[C@@H](C)C(=O)N[C@H](C(=O)N[C@@H](CCCCN)C(=O)N[C@@H](CCCCN)C(=O)N[C@@H](Cc1c[nH]c2ccccc12)C(=O)NCC(=O)N[C@@H](CCCCN)C(=O)N[C@H](C(=O)N[C@@H](Cc1ccccc1)C(=O)N[C@H](C(=O)NCC(=O)N[C@@H](CCC(=O)O)C(=O)N[C@H](C(=O)N[C@@H](C)C(=O)N[C@@H](CCCCN)C(=O)N[C@@H](CO)C(N)=O)[C@@H](C)CC)[C@@H](C)CC)[C@@H](C)O)C(C)C)[C@@H](C)CC [GIGKFIHAVKKWGKTFIGEIAKS],MIC,[5],0.8 µM
same,MIC,[6],1.6 µM
CC[C@H](C)[C@H](NC(=O)[C@H](CC(=O)O)NC(=O)[C@H](CCCCN)NC(=O)[C@H](C)NC(=O)[C@H](C)NC(=O)CNC(=O)[C@H](CCCCN)NC(=O)[C@H](CC(C)C)NC(=O)[C@H](C)NC(=O)[C@H](CC(=O)O)NC(=O)[C@@H](NC(=O)[C@@H](NC(=O)CN)C(C)C)C(C)C)C(=O)N[C@@H](C)C(=O)NCC(=O)N[C@@H](Cc1cnc[nH]1)C(=O)N[C@@H](CC(C)C)C(=O)N[C@@H](C)C(=O)N[C@@H](CO)C(=O)N[C@@H](CCCCN)C(=O)N[C@H](C(=O)N[C@@H](CCSC)C(=O)N[C@@H](CC(N)=O)C(=O)N[C@@H](CCCCN)C(=O)N[C@@H](CC(C)C)C(N)=O)C(C)C [GVVDALKGAAKDIAGHLASKVMNKL],MIC,[7],≥ 100 µM
same,MIC,[8],> 100 µM
same,MIC,[9],≥ 100 µM
same,MIC,[10],> 100 µM
same,MIC,[11],> 100 µM
same,MIC,[12],> 100 µM
CC[C@H](C)[C@H](NC(=O)[C@H](CC(=O)O)NC(=O)[C@H](CCCCN)NC(=O)[C@H](C)NC(=O)[C@H](C)NC(=O)CNC(=O)[C@H](CCCCN)NC(=O)[C@H](CC(C)C)NC(=O)[C@@H](NC(=O)[C@H](CC(=O)O)NC(=O)[C@@H](NC(=O)[C@@H](NC(=O)CN)C(C)C)C(C)C)[C@@H](C)CC)C(=O)N[C@@H](CC(C)C)C(=O)NCC(=O)N[C@@H](Cc1cnc[nH]1)C(=O)N[C@@H](CC(C)C)C(=O)N[C@@H](C)C(=O)N[C@@H](CO)C(=O)N[C@@H](CCCCN)C(=O)N[C@H](C(=O)N[C@@H](CCSC)C(=O)N[C@@H](CC(N)=O)C(=O)N[C@@H](CCCCN)C(=O)N[C@@H](CC(C)C)C(N)=O)C(C)C [GVVDILKGAAKDILGHLASKVMNKL],MIC,[7],≥ 50 µM
same,MIC,[8],50 µM
same,MIC,[9],25 µM
same,MIC,[10],100 µM
same,MIC,[11],25 µM
same,MIC,[12],6.25 µM
NC(N)=NCCC[C@H](NC(=O)[C@H](Cc1c[nH]c2ccccc12)NC(=O)[C@H](CCCN=C(N)N)NC(=O)[C@H](CCCN=C(N)N)NC(=O)[C@H](Cc1c[nH]c2ccccc12)NC(=O)[C@H](CCCN=C(N)N)NC(=O)[C@H](CCCN=C(N)N)NC(=O)[C@H](Cc1c[nH]c2ccccc12)NC(=O)[C@H](CCCN=C(N)N)NC(=O)[C@H](CCCN=C(N)N)NC(=O)[C@H](Cc1c[nH]c2ccccc12)NC(=O)[C@@H](N)CCCN=C(N)N)C(=O)O [RWRRWRRWRRWR],MIC,Pseudomonas aeruginosa,> 31.8 µM
same,MIC,Staphylococcus aureus,5.96 µM
same,MIC,Proteus mirabilis,31.8 µM
same,MIC,Streptococcus pyogenes,0.497 µM
CC[C@H](C)[C@H](NC(=O)[C@H](Cc1c[nH]c2ccccc12)NC(=O)[C@H](CC(C)C)NC(=O)[C@H](CCCN=C(N)N)NC(=O)[C@@H](N)C(C)C)C(=O)N[C@@H](CCCN=C(N)N)C(=O)N[C@H](C(=O)N[C@@H](C)C(=O)N[C@H](C(=O)N[C@H](C(=O)N[C@@H](CCCN=C(N)N)C(=O)N[C@@H](C)C(N)=O)[C@@H](C)CC)C(C)C)C(C)C [VRLWIRVAVIRA],MIC,[13],2.07 µM
same,MIC,[14],≥ 34.4 µM
same,MIC,Escherichia coli UB1005,4.13 µM
same,MIC,[15],34.4 µM
same,MIC,Candida albicans,34.4 µM
same,MIC,[16],≥ 34.4 µM
CC[C@H](C)[C@H](NC(=O)CNC(=O)[C@H](CCCN=C(N)N)NC(=O)[C@H](Cc1ccccc1)NC(=O)[C@@H](NC(=O)[C@H](Cc1cnc[nH]1)NC(=O)[C@H](Cc1cnc[nH]1)NC(=O)[C@H](Cc1ccccc1)NC(=O)[C@@H](N)Cc1c[nH]c2ccccc12)[C@@H](C)CC)C(=O)N[C@H](C(=O)N[C@@H](Cc1cnc[nH]1)C(=O)N[C@H](C(=O)NCC(=O)N[C@@H](CCCCN)C(=O)N[C@H](C(=O)N[C@H](C(=O)N[C@@H](Cc1cnc[nH]1)C(=O)N[C@@H](CCCN=C(N)N)C(=O)N[C@@H](CC(C)C)C(=O)N[C@H](C(=O)N[C@H](C(=O)NCC(=O)O)[C@@H](C)O)C(C)C)[C@@H](C)CC)[C@@H](C)O)C(C)C)C(C)C [WFHHIFRGIVHVGKTIHRLVTG],MIC,[17],2 µM
same,MIC,[18],4 µM
same,MIC,[19],2 µM
same,MIC,[20],2 µM
same,MIC,[21],2 µM
same,MIC,[22],2 µM
same,MIC,[23],2 µM
same,MIC,[24],4 µM
same,MIC,[25],2 µM
same,MIC,[26],2 µM
same,MIC,[27],2 µM
same,MIC,[28],2 µM
same,MIC,[29],2 µM
same,MIC,[30],4 µM
NC(N)=NCCC[C@H](NC(=O)[C@H](CCCN=C(N)N)NC(=O)[C@H](CCCN=C(N)N)NC(=O)[C@H](CCCN=C(N)N)NC(=O)[C@H](CCCN=C(N)N)NC(=O)[C@H](CCCN=C(N)N)NC(=O)[C@H](CCCN=C(N)N)NC(=O)[C@H](CCCN=C(N)N)NC(=O)[C@H](Cc1c[nH]c2ccccc12)NC(=O)[C@H](Cc1c[nH]c2ccccc12)NC(=O)[C@@H](N)Cc1c[nH]c2ccccc12)C(=O)O [WWWRRRRRRRR],MIC,Pseudomonas aeruginosa,> 35 µM
same,MIC,Staphylococcus aureus,5.48 µM
same,MIC,Proteus mirabilis,≥ 35 µM
same,MIC,Streptococcus pyogenes,0.479 µM
